Results as given in patent US20210187014A1 (The Regents of the University of Colorado, a body corporate, priority 2018, published 2021).

Key:
[1] = tested on: succinate dehydrogenase; assay: Succinate dehydrogenase enzymatic activity in worms +/- Ent; type: in vivo, C. elegans; conditions: worms fed Ent-deficient food
Procedure: Enzymatic activity. Succinate Dehydrogenase (MAK197; Sigma) and aconitase (MAK051; Sigma) enzymatic activity were measured using the kits according to the manufacturer's protocol. […] After 48 hours culturing, worms were lysed in ice-cold conditions using the lysis buffer provided in the kit, supplemented with […]. Equal amounts of protein were used for the enzymatic activity assay.

[2] = tested on: murine intestinal epithelial (MODE-K) cells; assay: Cellular iron level by Calcein AM fluorescence in MODE-K cells +/- DFO; type: cell-based, mouse
Procedure: The present inventors then created a low-iron condition by adding an iron chelator, Deferoxamine (DFO) to the medium (FIG. 18A). […] The assay was also performed using mouse intestinal epithelial (MODE-K) cells.

[3] = tested on: C. elegans; assay: Iron level in live worms by calcein-AM staining (and pftn-2::GFP reporter); type: in vivo
Procedure: The present inventors employed the commonly used fluorescent cell-permeable dye, calcein AM, of which emission is quenched by iron binding, and applied it to live worms as previously described to estimate the overall iron level in the host.
Live imaging of iron in worms was done as previously described (James et al., 2015). Briefly, worms were collected at different culture conditions, then co-cultured in M9 with 0.05 ug/ML calcein-AM (Invitrogen) for 1 h, then washed 3 times in 1 ml M9. Samples were then mounted for fluorescence microscopy.
For calcein-AM staining, the original images taken with GFP channel were used to measure the intensity. The value of staining intensity was determined by subtracting the background intensity from the calcein-AM stained intestine.

[4] = tested on: MEL cells; assay: Erythroid differentiation of MEL cells (color change of cell pellets); type: cell-based, murine; conditions: equimolar supplementation
Procedure: FIG. 27. Ferric Enterobactin supplementation benefits differentiation of erythroid progenitor cells (MEL) to red blood cells. (FIG. 27A) MEL cells were grown with the indicated treatments. Cell pellets are shown. (FIG. 27B) Quantification of MEL color change presented as the average intensity of each cell pellet, normalized to the intensity of the control. Error bars are the standard deviation of three technical replicates.
MEL cells are murine erythroid progenitor cells that are arrested at the proerythroblast stage. In the laboratory, these cells are induced to undergo erythroid differentiation to red blood cells by addition of various chemicals (e.g. 2% DMSO) (Friend, 1971). Erythroid differentiation is an iron-dependent process that results in a color change in the differentiated cells. The present inventors tested if addition of Fe-Ent would positively impact the differentiation of wild-type MEL cells to red blood cells.

[5] = target: T1, ATP-1 (Caenorhabditis elegans, UniProt Q9XXK1); assay: Iron-binding assay: 55FeCl3 +/- siderophore in worm lysates, ATP-1 immunoprecipitation; parameters: species or system C. elegans
T1 construct: His; made in house; host or cells: E. coli (given only for the three ATP-1 segments)
T1 sequence (Q9XXK1 whole entry): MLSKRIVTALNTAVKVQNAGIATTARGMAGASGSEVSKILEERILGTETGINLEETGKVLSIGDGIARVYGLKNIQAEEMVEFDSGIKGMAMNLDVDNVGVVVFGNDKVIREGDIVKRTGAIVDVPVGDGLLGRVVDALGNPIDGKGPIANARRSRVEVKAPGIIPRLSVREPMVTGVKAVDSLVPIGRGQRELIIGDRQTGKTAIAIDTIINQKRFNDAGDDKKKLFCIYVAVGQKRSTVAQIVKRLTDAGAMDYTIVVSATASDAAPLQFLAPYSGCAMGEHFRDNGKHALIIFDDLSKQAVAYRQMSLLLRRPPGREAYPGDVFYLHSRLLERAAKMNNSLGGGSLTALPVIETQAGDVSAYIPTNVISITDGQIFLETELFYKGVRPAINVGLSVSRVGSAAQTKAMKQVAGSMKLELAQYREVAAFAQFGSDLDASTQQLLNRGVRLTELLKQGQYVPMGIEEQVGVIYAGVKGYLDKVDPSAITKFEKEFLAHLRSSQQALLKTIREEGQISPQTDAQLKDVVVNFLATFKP
Procedure: The present inventors added radiolabeled iron (55FeCl3) to worm lysates and then immunoprecipitated ATP-1.
(§1) In vitro binding assay. (a) Ent-biotin pull-down of total proteins: Ent-biotin and streptavidin beads were used to pull down interacting proteins from worm total protein extracts (same method as that in initial screen for Ent-binding proteins). Western blots were performed to detect ATP-1 (Thermo Fisher 43-9800). […] The assay was then quenched with a standard 5×SDS-PAGE_loading buffer (reducing). Proteins were separated by SDS-PAGE and transferred to_nitrocellulose membranes. The membranes were blocked for 1 h with 5% BSA in Trisbuffered saline (TBS) with 0.1% Tween 20 (TBST) at room temperature, followed by incubation for 1 h with horseradish peroxidase streptavidin (Cell Signaling_Technology,3999S) in TBST. After four washes with changes every 15 min in TBST, the_biotinylated proteins were visualized by enhanced chemiluminescence (GE Healthcare,_RPN2232). […] After IP, the amount of 55Fe was determined by liquid scintillation.

[6] = target: T1, ATP-1; assay: Biotin-Ent binding to ATP-1 (in vivo pulldown and in vitro binding assay); parameters: species or system C. elegans; conditions: excess non-biotin labeled Ent
Procedure: First, in an in vivo assay, worms were fed bacteria +/− Biotin-Ent and total protein extracts were isolated, followed by streptavidin-bead purification and SDS-PAGE. […] Just as the iron-free Biotin-Ent, iron-bound Biotin-Ent also bound the ATP-1 protein (FIG. 10B, C).
In vivo binding assay: Worms were allowed to grow with Ent-biotin (5 ug/ml) dietary supplementation, followed by streptavidin-bead IP. Western blot was performed to detect ATP-1, using an antibody against the mammalian ATP synthase a-subunit (Thermo Fisher 43-9800).
as §1, with “TBST.” for “TBST. After four washes with changes every 15 min in TBST, the_biotinylated proteins were visualized by enhanced chemiluminescence (GE Healthcare,_RPN2232).”

[7] = tested on: HEK293T cells; assay: In vivo mitochondrial iron uptake assay in HEK293T cells; type: cell-based, human
[8] = tested on: HEK293T cells; assay: CAS staining of siderophore level in HEK293T cells; type: cell-based, human; conditions: Ent supplemented to the culture medium
[9] = tested on: mitochondria; assay: In vitro mitochondrial iron uptake assay, mitochondria purified from worms (55Fe); type: biochemical, C. elegans; conditions: purified mitochondria incubated with 55FeCl3 +/- Ent
Procedure: Mitochondrial iron uptake assays. For the in vitro mitochondrial iron uptake assay, the present inventors modified a published procedure for analysis of mammalian cells (Devireddy et al., 2010). […] The samples were incubated for 4 hours at room temperature, and the amount of 55Fe in lysed mitochondria was determined by liquid scintillation.

[10] = tested on: whole worm lysates; assay: Affinity chromatography with immobilized Ent and mass spectrometry to identify Ent-binding proteins; parameters: species or system C. elegans; conditions: two independent experiments
Procedure: CTL-2 is a homolog of catalases that are known to bind iron. ATP-1 is the a-subunit of the mitochondrial ATP synthase that is not known for a role in iron biology (Junge and Nelson, 2015).
Isolation of Enterobactin-binding proteins by biotin-IP and LC-MS. Total proteins were extracted from mixed stage worms and then pre-cleaned three times by adding 100 ul Dynabeads® M-280 Streptavidin. Equal volumes of these total protein extracts were then separated to two tubes. Biotin-Ent (5 ug) was added into one tube for IP and Biotin alone (5 ug) was added to another tube as the control, both were incubated overnight at 4° C. After incubating with Dynabeads® M-280 Streptavidin for 2 hours, the beads were washed at least 3 times by 1mL PBS. PBS was then removed from the beads and 200 uL 0.1 M ammonium bicarbonate (ABC)/0.001% deoxycholic acid (DCA) was added. The samples were reduced using 5 mM (final) TCEP at 60° C. for 30 min and alkylated using 15 mM iodoacetamide at room temperature for 20 min. 0.5 ug of trypsin was added to each sample and incubated overnight. The samples were then acidified using 7 uL of formic acid. DCA was removed from the samples by phasetransfer using ethyl acetate. The samples were desalted using a Pierce C18 spin column, and dried using a speed vac. […]

## O=C(N[C@H]1COC(=O)[C@@H](NC(=O)c2cccc(O)c2O)COC(=O)[C@@H](NC(=O)c2cccc(O)c2O)COC1=O)c1cccc(O)c1O [Ent, enterobactin]
[1]
  activity of succinate dehydrogenase: significantly increased
[2]; iron-poor/DFO condition
  effect on cellular iron level: more pronounced
[2]; standard medium
  cellular iron level: modestly increased the cellular iron level
[3]; atp-1 RNAi, entF- mutant bacteria
  iron level gain with Ent supplementation: eliminated the iron level gain
[3]; growth-arrested worms fed heat-killed E. coli only
  iron level in worms (calcein AM and pftn-2::GFP): such a defect was suppressed
[3]; iron-deficient condition, worms treated with CaEDTA
  iron level and growth rate defects: both defects were suppressed
[3]; worms fed entA- or entF- mutant bacteria with heat-killed E. coli
  iron level in worms (calcein AM fluorescence): recovered
[3]; worms treated with CaEDTA
  amount of FeCl3 (175 ug/ul) with equivalent effect on calcein-AM fluorescence decrease: 10 µL
  iron level increase attributed to Ent-mediated iron uptake: ≥ 10 fold
[4]
  MEL differentiation to red blood cells: decrease in differentiation
[5]; whole worm lysates
  increase in 55Fe associated with ATP-1-IP: > 10 fold
[5]; worm lysates
  binding of ATP-1 to 55Fe: dramatically increased
[6]
  competition of Biotin-Ent binding to ATP-1-His: outcompeted
[7]
  iron level in mitochondria: prominently increased
[8]
  entry into cells (CAS staining, siderophore level): can enter
[9]
  increase in 55Fe level in mitochondria: 10 fold
[10]
  candidate Ent-binding proteins captured: CTL-2 and ATP-1
